Measurements from patent US10568876B2, “Tetrahydroisoquinoline derivatives useful as inhibitors of diacylglyceride O-acyltransferase 2” (Merck Sharp & Dohme Corp., priority 2014, dated 2020).

Biological target: hDGAT2 (Homo sapiens (Human), UniProt Q96PD7)
Experiment: DGAT2 Enzymatic Activity Assay
Assay type: biochemical
Conditions: hDGAT2 Sf-9 membrane prep; 25 μM diolein, 10 μM oleoyl-CoA; triolein product by LC/MS/MS; read-out: IC50 values for inhibition of DGAT2
Summary of the method: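 Membranes from Sf-9 cells expressing untagged hDGAT2 (10 ng/μL) incubated at room temperature with 25 μM diolein and 10 μM oleoyl-CoA in 100 mM Tris pH 7.0, 20 mM MgCl2, 5% ethanol. Triolein product quantified by LC/MS/MS against spiked internal standard; IC50 from 4-parameter sigmoidal fit.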

Sequence of hDGAT2 (Q96PD7 whole entry): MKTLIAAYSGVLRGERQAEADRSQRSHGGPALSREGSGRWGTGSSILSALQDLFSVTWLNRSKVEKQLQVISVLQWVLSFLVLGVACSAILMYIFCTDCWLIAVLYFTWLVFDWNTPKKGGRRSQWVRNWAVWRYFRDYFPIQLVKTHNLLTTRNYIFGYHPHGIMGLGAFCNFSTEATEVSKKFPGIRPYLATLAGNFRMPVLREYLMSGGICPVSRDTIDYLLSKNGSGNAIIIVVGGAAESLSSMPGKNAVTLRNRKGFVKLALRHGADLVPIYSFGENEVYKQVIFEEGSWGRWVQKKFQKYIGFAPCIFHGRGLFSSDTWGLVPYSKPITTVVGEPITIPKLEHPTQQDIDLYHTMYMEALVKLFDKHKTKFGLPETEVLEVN

| IC50 [nM] | SMILES |
| --- | --- |
| 1640 | COc1cccc(-c2ccc(CNC(=O)[C@@H]3C[C@H]3c3ccccc3)c3c2CCN(C(=O)Nc2cc(C)no2)C3)c1 (relative stereo) [Example 20, 5-(3-methoxyphenyl)-N-(3-methylisoxazol-5-yl)-8-(((trans)-2-phenylcyclopropanecarboxamido)methyl)-3,4-dihydroisoquinoline-2(1H)-carboxamide] |
| 971 | COc1cccc(-c2ccc(CNC(=O)[C@@H]3C[C@H]3c3ccccc3)c3c2CCN(C(=O)c2cc(F)cc(F)c2)C3)c1 (relative stereo) [Example 111, (trans)-N-((2-(3,5-difluorobenzoyl)-5-(3-methoxyphenyl)-1,2,3,4-tetrahydroisoquinolin-8-yl)methyl)-2-phenylcyclopropanecarboxamide] |
| 13.8 | COc1cccc(-c2ccc(CNC(=O)[C@@H]3C[C@H]3c3ccccc3)c3c2CCN(C(=O)NC2(C)COC2)C3)c1 (relative stereo) [Example 68, 5-(3-methoxyphenyl)-N-(3-methyloxetan-3-yl)-8-(((trans)-2-phenylcyclopropanecarboxamido)methyl)-3,4-dihydroisoquinoline-2(1H)-carboxamide] |
| 1240 | Cc1noc(C2CC2C(=O)NCc2ccc(-c3cccc(OC(F)(F)F)c3)c3c2CN(CC(N)=O)CC3)n1 (stereo not shown) [Example 83, N-((2-(2-amino-2-oxoethyl)-5-(3-(trifluoromethoxy)phenyl)-1,2,3,4-tetrahydroisoquinolin-8-yl)methyl)-2-(3-methyl-1,2,4-oxadiazol-5-yl)cyclopropanecarboxamide] |
| 2860 | Cn1nnc2ccc(-c3ccc(CNC(=O)[C@@H]4C[C@H]4c4ccccc4)c4c3CCN(C(=O)NC(C)(C)C)C4)cc21 (relative stereo) [Example 33, N-(tert-butyl)-5-(1-methyl-1H-benzo[d][1,2,3]triazol-6-yl)-8-(((trans)-2-phenylcyclopropanecarboxamido)methyl)-3,4-dihydroisoquinoline-2(1H)-carboxamide] |
| 2610 | Cc1noc([C@@H]2C[C@H]2C(=O)NCc2ccc(-c3cccc(OC(F)(F)F)c3)c3c2CN(Cc2ccncn2)CC3)n1 (relative stereo) [Example 105, (trans)-2-(3-methyl-1,2,4-oxadiazol-5-yl)-N-((2-(pyrimidin-4-ylmethyl)-5-(3-(trifluoromethoxy)phenyl)-1,2,3,4-tetrahydroisoquinolin-8-yl)methyl)cyclopropanecarboxamide] |
| 463 | Cc1noc(C2CC2C(=O)NCc2ccc(-c3cccc(OC(F)(F)F)c3)c3c2CN(C(=O)NC2CCS(=O)(=O)C2)CC3)n1 (stereo not shown) [Example 60, N-(1,1-dioxidotetrahydrothiophen-3-yl)-8-((2-(3-methyl-1,2,4-oxadiazol-5-yl)cyclopropanecarboxamido)methyl)-5-(3-(trifluoromethoxy)phenyl)-3,4-dihydroisoquinoline-2(1H)-carboxamide] |
| 5090 | Cc1noc([C@@H]2C[C@H]2C(=O)NCc2ccc(-c3cccc(OC(F)(F)F)c3)c3c2CN(Cc2noc(C(C)C)n2)CC3)n1 (relative stereo) [Example 104, (trans)-N-((2-((5-isopropyl-1,2,4-oxadiazol-3-yl)methyl)-5-(3-(trifluoromethoxy)phenyl)-1,2,3,4-tetrahydroisoquinolin-8-yl)methyl)-2-(3-methyl-1,2,4-oxadiazol-5-yl)cyclopropanecarboxamide] |
| 209 | COC(=O)c1cccc(-c2ccc(CNC(=O)C3CC3c3ccccc3)c3c2CCN(C(=O)CC2CC2)C3)c1 (stereo not shown) [Example 125, methyl 3-(2-(2-cyclopropylacetyl)-8-((2-phenylcyclopropanecarboxamido)methyl)-1,2,3,4-tetrahydroisoquinolin-5-yl)benzoate] |
| 16.1 | CC(C)(C)NC(=O)N1CCc2c(-c3cccc(C#N)c3)ccc(CNC(=O)[C@@H]3C[C@H]3c3ccccc3)c2C1 (relative stereo) [Example 22, N-(tert-butyl)-5-(3-cyanophenyl)-8-(((trans)-2-phenylcyclopropanecarboxamido)methyl)-3,4-dihydroisoquinoline-2(1H)-carboxamide] |
| 11.6 | CC(C)(C)NC(=O)N1CCc2c(-c3cccc(-n4cccn4)c3)ccc(CNC(=O)[C@@H]3C[C@H]3c3ccccc3)c2C1 (relative stereo) [Example 34, 5-(3-(1H-pyrazol-1-yl)phenyl)-N-(tert-butyl)-8-(((trans)-2-phenylcyclopropanecarboxamido)methyl)-3,4-dihydroisoquinoline-2(1H)-carboxamide] |
| 2510 | COC(=O)c1cccc(-c2ccc(CNC(=O)C3CC3c3ccccc3)c3c2CCN(C(=O)c2ccncc2)C3)c1 (stereo not shown) [Example 133, methyl 3-(2-isonicotinoyl-8-((2-phenylcyclopropanecarboxamido)methyl)-1,2,3,4-tetrahydroisoquinolin-5-yl)benzoate] |
| 4770 | Cc1noc([C@@H]2C[C@H]2C(=O)NCc2ccc(-c3cccc(OC(F)(F)F)c3)c3c2CN(Cc2cnccn2)CC3)n1 (relative stereo) [Example 107, (trans)-2-(3-methyl-1,2,4-oxadiazol-5-yl)-N-((2-(pyrazin-2-ylmethyl)-5-(3-(trifluoromethoxy)phenyl)-1,2,3,4-tetrahydroisoquinolin-8-yl)methyl)cyclopropanecarboxamide] |
| 173 | CC(C)(C)NC(=O)N1CCc2c(-c3cncc(C(F)(F)F)c3)ccc(CNC(=O)[C@@H]3C[C@H]3c3ccccc3)c2C1 (relative stereo) [Example 47, N-(tert-butyl)-8-(((trans)-2-phenylcyclopropanecarboxamido)methyl)-5-(5-(trifluoromethyl)pyridin-3-yl)-3,4-dihydroisoquinoline-2(1H)-carboxamide] |
| 219 | COC(=O)c1cccc(-c2ccc(CNC(=O)C3CC3c3ccccc3)c3c2CCN(C(=O)c2ccccc2F)C3)c1 (stereo not shown) [Example 139, methyl 3-(2-(2-fluorobenzoyl)-8-((2-phenylcyclopropanecarboxamido)methyl)-1,2,3,4-tetrahydroisoquinolin-5-yl)benzoate] |
| 4790 | CC(C)(C)NC(=O)N1CCc2c(-c3cnn(Cc4ccccc4)c3)ccc(CNC(=O)[C@@H]3C[C@H]3c3ccccc3)c2C1 (relative stereo) [Example 40, 5-(1-benzyl-1H-pyrazol-4-yl)-N-(tert-butyl)-8-(((trans)-2-phenylcyclopropanecarboxamido)methyl)-3,4-dihydroisoquinoline-2(1H)-carboxamide] |
| 82.3 | Cc1cncc(-c2ccc(CNC(=O)[C@@H]3C[C@H]3c3ccccc3)c3c2CCN(C(=O)NC(C)(C)C)C3)c1 (relative stereo) [Example 8, N-(tert-butyl)-5-(5-methylpyridin-3-yl)-8-(((trans)-2-phenylcyclopropanecarboxamido)methyl)-3,4-dihydroisoquinoline-2(1H)-carboxamide] |
| 89.8 | COc1cccc(-c2ccc(CNC(=O)[C@@H]3C[C@H]3c3ccccc3)c3c2CCN(C(=O)NC2COC2)C3)c1 (relative stereo) [Example 74, 5-(3-methoxyphenyl)-N-(oxetan-3-yl)-8-(((trans)-2-phenylcyclopropanecarboxamido)methyl)-3,4-dihydroisoquinoline-2(1H)-carboxamide] |
| 6090 | Cc1cc(C)n(-c2cccc(-c3ccc(CNC(=O)[C@@H]4C[C@H]4c4ccccc4)c4c3CCN(C(=O)NC(C)(C)C)C4)c2)n1 (relative stereo) [Example 31, N-(tert-butyl)-5-(3-(3,5-dimethyl-1H-pyrazol-1-yl)phenyl)-8-(((trans)-2-phenylcyclopropanecarboxamido)methyl)-3,4-dihydroisoquinoline-2(1H)-carboxamide] |
| 1170 | Cn1nccc1-c1ccc(CNC(=O)[C@@H]2C[C@H]2c2ccccc2)c2c1CCN(C(=O)NC(C)(C)C)C2 (relative stereo) [Example 30, N-(tert-butyl)-5-(1-methyl-1H-pyrazol-5-yl)-8-(((trans)-2-phenylcyclopropanecarboxamido)methyl)-3,4-dihydroisoquinoline-2(1H)-carboxamide] |
| 3130 | CC(C)(C)NC(=O)N1CCc2c(-c3ccn4ncnc4c3)ccc(CNC(=O)[C@@H]3C[C@H]3c3ccccc3)c2C1 (relative stereo) [Example 43, 5-([1,2,4]triazolo[1,5-a]pyridin-7-yl)-N-(tert-butyl)-8-(((trans)-2-phenylcyclopropanecarboxamido)methyl)-3,4-dihydroisoquinoline-2(1H)-carboxamide] |
| 11.4 | CC(C)(C)NC(=O)N1CCc2c(-c3cccc(-n4ccnn4)c3)ccc(CNC(=O)[C@@H]3C[C@H]3c3ccccc3)c2C1 (relative stereo) [Example 5, 5-(3-(1H-1,2,3-triazol-1-yl)phenyl)-N-(tert-butyl)-8-(((trans)-2-phenylcyclopropanecarboxamido)methyl)-3,4-dihydroisoquinoline-2(1H)-carboxamide] |
| 24 | Cc1noc(C2CC2C(=O)NCc2ccc(-c3cccc(OC(F)(F)F)c3)c3c2CN(C(=O)NC2(C)CCS(=O)(=O)C2)CC3)n1 (stereo not shown) [Example 58, N-(3-methyl-1,1-dioxidotetrahydrothiophen-3-yl)-8-((2-(3-methyl-1,2,4-oxadiazol-5-yl)cyclopropanecarboxamido)methyl)-5-(3-(trifluoromethoxy)phenyl)-3,4-dihydroisoquinoline-2(1H)-carboxamide] |
| 818 | COc1cccc(-c2ccc(CNC(=O)[C@@H]3C[C@H]3c3ccccc3)c3c2CCN(C(=O)N2CCOCC2)C3)c1 (relative stereo) [Example 62, (trans)-N-((5-(3-methoxyphenyl)-2-(morpholine-4-carbonyl)-1,2,3,4-tetrahydroisoquinolin-8-yl)methyl)-2-phenylcyclopropanecarboxamide] |
| 1320 | COC(=O)c1cccc(-c2ccc(CNC(=O)C3CC3c3ccccc3)c3c2CCN(C(=O)C2(C(F)(F)F)CC2)C3)c1 (stereo not shown) [Example 123, methyl 3-(8-((2-phenylcyclopropanecarboxamido)methyl)-2-(1-(trifluoromethyl)cyclopropanecarbonyl)-1,2,3,4-tetrahydroisoquinolin-5-yl)benzoate] |
